Reference: paper PMC10779222, “Copper(II) Complexes with 1-(Isoquinolin-3-yl)heteroalkyl-2-ones: Synthesis, Structure and Evaluation of Anticancer, Antimicrobial and Antioxidant Potential” (International Journal of Molecular Sciences, 2023)

What was measured:
Experiment in all cases: Two-fold microdilution broth method, MIC
Type in all cases: cell-based
Conditions in all cases: 35 °C, 24 h
[1] = test system: Candida glabrata ATCC 90030
Source text: (§1) Antibacterial and antifungal activities of the free ligands L2, L3 and L4 and the corresponding copper(II) complexes C2, C3 and C4 were screened using the two-fold microdilution broth method. Minimal inhibitory concentrations (MICs) of tested compounds for the panel of reference Gram-positive bacteria, including Staphylococcus aureus ATCC 25923, Staphylococcus aureus ATCC BAA-1707, Staphylococcus epidermidis ATCC 12228, Micrococcus luteus ATCC 10240 and Bacillus cereus ATCC 10876; Gram-negative bacteria, including Salmonella Typhimurium ATCC 14028, Escherichia coli ATCC 25922, Proteus mirabilis ATCC 12453, Klebsiella pneumoniae ATCC 13883 and Pseudomonas aeruginosa ATCC 9027; and yeasts, including Candida albicans ATCC 102231, Candida parapsilosis ATCC 22019 and Candida glabrata ATCC 90030 were determined. The procedure has been described in detail before. Briefly, the solutions of tested compounds dissolved in dimethylosulfoxide (DMSO) were suspended in Mueller–Hinton broth for bacteria or Mueller–Hinton broth with 2% glucose for fungi. Then, the series of two-fold dilutions were carried out in the sterile Nunc™ MicroWell™ 96-Well Microplates (ThermoFisher Scientific Inc.), obtaining concentrations from 1000 to 7.8 mg/L in the appropriate medium. Simultaneously, the inocula of 24 h cultures of microorganisms in sterile physiological saline (0.5 McFarland standard density) were prepared and added to each well, obtaining final density of 5 × 10^5 CFU/mL for bacteria and 5 × 10^4 CFU/mL for yeasts. Proper positive (inoculum without tested compound) and negative (compound without inoculum) controls were added in each microplate. After incubation (35 °C, 24 h), the growth of microorganisms was measured spectrophotometrically at 600 nm (BioTEK ELx808, Bio-Tek Instruments, Inc., Winooski, VT, USA). MICs were marked at the lowest concentration of the compound without the growth of bacteria or fungi.

[2] = test system: Candida parapsilosis ATCC 22019
Source text: as §1

[3] = test system: Candida albicans ATCC 102231
Source text: as §1

Question: O=C1NCCN1c1cc2ccccc2cn1.O=C1NCCN1c1cc2ccccc2cn1.[Cl][Cu][Cl] [C2, Dichloro{bis[1-(Isoquinolin-3-yl)imidazolidin-2-one]}copper(II)] was tested. Which “MIC, C. glabrata ATCC 90030” value [1] did it give?
Answer: Its value is greater than 1000 µg/mL.

Question: What about the “MIC, C. parapsilosis ATCC 22019” value [2] of the same compound?
Answer: Its value is 1000 µg/mL.

Question: And the “MIC, C. albicans ATCC 102231” value [3]?
Answer: Its value is 1000 µg/mL.
